ChEMBL document CHEMBL1141683, “Substituted aryl pyrimidines as potent and soluble TRPV1 antagonists” (Bioorg Med Chem Lett, 2008)
In brackets after ≈: the same amount, converted by molar mass.

What was measured:
in vivo [1] = details: Sprague-Dawley, rat, iv, 1 mg/kg
physchem [2] = details: 0.01N HCl
physchem [3] = details: phosphate buffered saline, pH 7
physchem [4] = details: simulated intestinal fluid
Rattus norvegicus [5] = species on record: Rattus norvegicus; details: in vivo, po, 5 mg/kg
Rattus norvegicus [6] = species on record: Rattus norvegicus; details: in vivo, po, 5 mg/kg; remark: listed apart in the source
in vivo [7] = details: Sprague-Dawley, rat, po, 5 mg/kg

| clearance (in vivo [1]) [L/h/kg] | solubility (physchem [2]) [mg/mL] | solubility (physchem [3]) [mg/mL] | Vdss (Rattus norvegicus [5]) [L/kg] | AUC (Rattus norvegicus [6]) [µg·h/mL] | half-life (in vivo [7]) [h] | Compound | solubility (physchem [4]) [mg/mL] |
| --- | --- | --- | --- | --- | --- | --- | --- |
| > 4 | > 0.2 | 0.006 (≈ 10 µM) |  |  |  | CC(=O)Nc1nc2c(Oc3cc(-c4ccc(C(F)(F)F)cc4NC(=O)[C@@H]4CCCN4CC(C)C)ncn3)cccc2s1 | 0.039 (≈ 65.1 µM) |
| > 4 | > 0.2 | 0.001 (≈ 1.67 µM) |  |  |  | CC(=O)Nc1nc2c(Oc3cc(-c4ccc(C(F)(F)F)cc4NC(=O)[C@H]4CCCN4CC(C)C)ncn3)cccc2s1 | 0.039 (≈ 65.1 µM) |
|  | < 0.001 | < 0.001 | 1.6 | 5.4 | 6.3 | CC(=O)Nc1nc2c(Oc3cc(-c4ccc(C(F)(F)F)cc4)ncn3)cccc2s1 [AMG-517] |  |

| Compound | clearance (in vivo [1]) [L/h/kg] | solubility (physchem [2]) [mg/mL] | solubility (physchem [3]) [mg/mL] | Vdss (Rattus norvegicus [5]) [L/kg] | AUC (Rattus norvegicus [6]) [µg·h/mL] | half-life (in vivo [7]) [h] | solubility (physchem [4]) [mg/mL] |
| --- | --- | --- | --- | --- | --- | --- | --- |
| CC(=O)Nc1nc2c(Oc3cc(-c4ccc(C(F)(F)F)cc4NC(=O)CCN(C)C)ncn3)cccc2s1 |  | 0.081 (≈ 149 µM) | 0.0039 (≈ 7.16 µM) |  |  |  | 0.03 (≈ 55.1 µM) |
| CC(=O)Nc1nc2c(Oc3cc(-c4ccc(C(F)(F)F)cc4NC(=O)[C@@H]4CCC(C)N4)ncn3)cccc2s1 (stereo not given in full) | 0.62 | 0.12 (≈ 216 µM) | 0.0074 (≈ 13.3 µM) |  |  |  | 0.059 (≈ 106 µM) |
